Source: the supplement of paper PMC10307832

Key:
Test in all cases: relative viability (nuclei count vs DMSO), 5 days (fraction); higher = more cells survive
[1] = compound: CCn1c(-c2nonc2N)nc2cnc(Oc3cccc(NC(=O)c4ccc(OCCN5CCOCC5)cc4)c3)cc21 + CC(C)C[C@H](NC(=O)[C@H](Cc1ccccc1)NC(=O)c1cnccn1)B(O)O [Bortezomib] (partner 0.002 µM)
Outline: (§1)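 Lung cancer cell lines were seeded in 1536-well plates and dosed by pin tool the next day, with either a single drug or a fixed anchor-drug dose combined with five library-drug doses (not always all listed) spaced in √10 steps. Five days later, one step fixed the cells and stained their nuclei (final 0.05% Triton X-100, 1% formaldehyde, 1 ug/ml Hoechst), and nuclei were counted on 4× images. Relative viability is the nuclei count in treated wells divided by the count in vehicle wells, and each value is the median of duplicate plates.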

Mirin + Crizotinib = compound: N=C1NC(=O)/C(=C/c2ccc(O)cc2)S1 [Mirin] + C[C@@H](Oc1cc(-c2cnn(C3CCNCC3)c2)cnc1N)c1c(Cl)ccc(F)c1Cl [Crizotinib] (partner 1 µM)
Outline: as §1

Mirin + Tozasertib = compound: N=C1NC(=O)/C(=C/c2ccc(O)cc2)S1 [Mirin] + Cc1cc(Nc2cc(N3CCN(C)CC3)nc(Sc3ccc(NC(=O)C4CC4)cc3)n2)n[nH]1 [Tozasertib] (partner 0.1 µM)
Outline: as §1

Mirin + Olaparib = compound: N=C1NC(=O)/C(=C/c2ccc(O)cc2)S1 [Mirin] + O=C(c1cc(Cc2n[nH]c(=O)c3ccccc23)ccc1F)N1CCN(C(=O)C2CC2)CC1 [Olaparib] (partner 8 µM)
Outline: as §1

## UMC-11
[1]; first compound 0.04 µM
  relative viability: 0.999
[1]; first compound 0.1265 µM
  relative viability: 0.439
[1]; first compound 0.4 µM
  relative viability: 0.312
[1]; first compound 1.265 µM
  relative viability: 0.161
[1]; first compound 4 µM
  relative viability: 0.135
Mirin + Crizotinib; first compound 0.25 µM
  relative viability: 0.499
Mirin + Crizotinib; first compound 0.7906 µM
  relative viability: 0.578
Mirin + Crizotinib; first compound 2.5 µM
  relative viability: 0.529
Mirin + Crizotinib; first compound 7.906 µM
  relative viability: 0.496
Mirin + Crizotinib; first compound 25 µM
  relative viability: 0.236
Mirin + Tozasertib; first compound 0.25 µM
  relative viability: 0.196
Mirin + Tozasertib; first compound 2.5 µM
  relative viability: 0.203
Mirin + Tozasertib; first compound 7.906 µM
  relative viability: 0.181
Mirin + Tozasertib; first compound 25 µM
  relative viability: 0.189
Mirin + Olaparib; first compound 0.25 µM
  relative viability: 0.382
Mirin + Olaparib; first compound 0.7906 µM
  relative viability: 0.316
Mirin + Olaparib; first compound 2.5 µM
  relative viability: 0.332
Mirin + Olaparib; first compound 7.906 µM
  relative viability: 0.279
Mirin + Olaparib; first compound 25 µM
  relative viability: 0.331
